Data as given in US9603364B2 (Dow AgroSciences LLC, priority 2013, dated 2017).

Tests used:
Assay in all cases: General post-emergent herbicidal activity, foliar application
Assay type in all cases: in vivo
[1] = test system: Amaranthus retroflexus L. (pigweed, redroot); settings: foliar post-emergent, scored after 14 days; for pest or weed control at 280 g/ha: 280 g ai/ha
Description: (§1) A weighed amount, determined by the highest rate to be tested, of each test compound was placed in a 25 mL glass vial and was dissolved in 4 mL of a 97:3 v/v (volume/volume) mixture of acetone and dimethyl sulfoxide to obtain concentrated stock solutions which will be referred to as General Purpose Solvent. […] The concentrated stock solutions obtained were diluted with 20 mL of an aqueous mixture containing water, General Purpose Solvent, isopropyl alcohol, Atplus 411F crop oil concentrate, and Triton X-155 surfactant in a 46:42:12:1.0:0.02 v/v ratio to obtain spray solutions containing the highest application rates. Additional application rates were obtained by serial dilution of 12 mL of the high rate solution into a solution containing 2 mL of 97:3 v/v (volume/volume) mixture of acetone and dimethyl sulfoxide and 10 mL of an aqueous mixture containing water, General Purpose Solvent, isopropyl alcohol, Atplus 411F crop oil concentrate, and Triton X-155 surfactant in a 46:42:12:1.0:0.02 v/v ratio to obtain 1/2×, 1/4×, 1/8× and 1/16× rates of the high rate. […] Control plants were sprayed in the same manner with the solvent blank.
(§2) The treated plants and control plants were placed in a greenhouse as described above and watered by sub-irrigation to prevent wash-off of the test compounds. After 14 days, the condition of the test plants as compared with that of the untreated plants was determined visually and scored on a scale of 0 to 100 percent where 0 corresponds to no injury and 100 corresponds to complete kill.
(§3) By applying the well-accepted probit analysis as described by J. Berkson in […], 48, 565 (1953) and by D. Finney in “Probit Analysis” Cambridge University Press (1952), the dose response data gathered as expressed above can be used to calculate GR20, GR50 and GR80 values, which are defined as growth reduction factors that correspond to the effective dose of herbicide required to kill or control 20 percent, 50 percent or 80 percent, respectively, of a target plant. Data not expressed in Table A may have been used to calculate some of the GR80 values in Table B. In some cases, the GR80 values may be extrapolations calculated based on the slope of the dose response curve for individual compounds listed in Table B.

[2] = test system: Chenopodium album L. (lambsquarters, common); settings: Chenopodium album, 336 h, foliar post-emergent, scored after 14 days, read-out: % Visual Growth Reduction CHEAL; for pest or weed control at 280 g/ha: 280 g ai/ha
Description: as §1, §2, §3

[3] = test system: Echinochloa crus-galli (L.) Beauv. (barnyardgrass); settings: for pest or weed control at 280 g/ha: 280 g ai/ha
Description: as §1, §2, §3

[4] = test system: Euphorbia heterophylla L. (poinsettia, wild); settings: Euphorbia heterophylla, 336 h, foliar post-emergent, scored after 14 days, read-out: % Visual Growth Reduction EPHHL; for pest or weed control at 280 g/ha: 280 g ai/ha
Description: as §1, §2, §3

[5] = test system: Helianthus annuus L. (sunflower, common); settings: Helianthus annuus, 336 h, 280 g ai/ha, foliar post-emergent, scored after 14 days; read-out: % Visual Growth Reduction HELAN
Description: as §1, §2, §3

[6] = test system: Viola tricolor L. (pansy); settings: for pest or weed control at 280 g/ha: 280 g ai/ha
Description: as §1, §2, §3

Oryza sativa L. (rice) = settings: scored after 14 days; for plant injury at 280 g/ha: 280 g ai/ha
Description: as §1, §2

Zea mays L. (corn) = settings: 336 h, scored after 14 days, read-out: % Visual Growth Reduction ZEAMX; for plant injury at 280 g/ha: 280 g ai/ha
Description: as §1, §2

[7] = Amaranthus retroflexus, 336 h, read-out: % Visual Growth Reduction AMARE
[8] = Echinochloa crus-galli, 336 h, foliar post-emergent, scored after 14 days, read-out: % Visual Growth Reduction ECHCG
[9] = Viola tricolor, 336 h, foliar post-emergent, scored after 14 days, read-out: % Visual Growth Reduction VIOTR
[10] = Oryza sativa, 336 h, read-out: % Visual Growth Reduction ORYSA
[11] = calculated, dose for 80% visual injury, prior art tables

For `COC(=O)c1nc(CCC(F)(F)F)c(Cl)c(N)c1Cl` [Compound F5, methyl 4-amino-3,5-dichloro-6-(3,3,3-trifluoropropyl)picolinate], the pest or weed control at 280 g/ha [1, 7] was 0%, the pest or weed control at 280 g/ha [2] was 0% and the pest or weed control at 280 g/ha [3, 8] was 0%. It also gave a pest or weed control at 280 g/ha [4] of 0%, a pest or weed control at 280 g/ha [5] of 60% and a pest or weed control at 280 g/ha [6, 9] of 0%. The plant injury at 280 g/ha (Oryza sativa L. (rice); [10]) was 0% and the plant injury at 280 g/ha (Zea mays L. (corn)) was 0%.
For `C=C(F)c1cc(N)c(Cl)c(C(=O)OC)n1` [Compound F6, methyl 4-amino-3-chloro-6-(1-fluorovinyl)picolinate], the pest or weed control at 280 g/ha [1, 7] was 40%, the pest or weed control at 280 g/ha [2] was 90% and the pest or weed control at 280 g/ha [3, 8] was 0%. The pest or weed control at 280 g/ha [4] was 60%, the pest or weed control at 280 g/ha [5] was 20% and the pest or weed control at 280 g/ha [6, 9] was 0%. It also gave a plant injury at 280 g/ha (Oryza sativa L. (rice); [10]) of 0% and a plant injury at 280 g/ha (Zea mays L. (corn)) of 0%.
In the case of `COC(=O)c1nc(C(F)(F)F)cc(N)c1Cl` [Prior Art 1, reference compound], the “% Visual Growth Reduction AMARE” value ([1]; 140 g ai/ha) is reported as 100%, the pest or weed control at 70 g/ha ([1]; Amaranthus retroflexus, 336 h, 70 g ai/ha, read-out: % Visual Growth Reduction AMARE) is reported as 80% and the pest or weed control at 140 g/ha ([1]; Amaranthus retroflexus, 336 h, 140 g ai/ha, read-out: % Visual Growth Reduction AMARE) is reported as 100%. The pest or weed control at 35 g/ha ([2]; 35 g ai/ha) was 80%, the pest or weed control at 70 g/ha ([2]; 70 g ai/ha) was 85% and the pest or weed control at 140 g/ha ([2]; 140 g ai/ha) was 100%. It also gave a pest or weed control at 35 g/ha ([3]; Echinochloa crus-galli, 336 h, 35 g ai/ha, foliar post-emergent, scored after 14 days, read-out: % Visual Growth Reduction ECHCG) of 0%, a pest or weed control at 70 g/ha ([3]; Echinochloa crus-galli, 336 h, 70 g ai/ha, foliar post-emergent, scored after 14 days, read-out: % Visual Growth Reduction ECHCG) of 0% and a pest or weed control at 140 g/ha ([3]; Echinochloa crus-galli, 336 h, 140 g ai/ha, foliar post-emergent, scored after 14 days, read-out: % Visual Growth Reduction ECHCG) of 0%. For the same compound, the “GR80 Values ECHCG” value [3, 11] was over 140 g/ha, the pest or weed control at 35 g/ha ([4]; 35 g ai/ha) was 80% and the pest or weed control at 70 g/ha ([4]; 70 g ai/ha) was 85%. For the same compound, the pest or weed control at 140 g/ha ([4]; 140 g ai/ha) was 95%, the pest or weed control at 140 g/ha ([6]; Viola tricolor, 336 h, 140 g ai/ha, foliar post-emergent, scored after 14 days, read-out: % Visual Growth Reduction VIOTR) was 95% and the “GR80 Values VIOTR” value [6, 11] was 121 g/ha. The “% Visual Growth Reduction ORYSA” value (Oryza sativa L. (rice); 35 g ai/ha) was 0%, the plant injury at 35 g/ha (Oryza sativa L. (rice); Oryza sativa, 336 h, 35 g ai/ha, read-out: % Visual Growth Reduction ORYSA) was 0% and the plant injury at 35 g/ha (Zea mays L. (corn); 35 g ai/ha) was 0%.
